Tested on: 521955-158-R2-J5-PDC complex spheroid growth, % test/control
Test: Anticancer human tumor 521955-158-R2-J5-PDC patient-derived pancreatic carcinoma cell line growth inhibition [Asc]
Settings: for IC50: curve of first compound; for viability, T/C: stronger effect = lower value
Method: Multicellular complex tumor spheroid response to apoptosis pathway targeting inhibitors Alrizomadlin, Pelcitoclax, and Dasminapant in combination with a variety of drugs and investigational agents in selected tumor cell lines
The MDM2 inhibitor alrizomadlin, the Bcl-2/Bcl-xL inhibitor pelcitoclax, and the IAPs inhibitor dasminapant were evaluated both individually and in combination with standard of care and investigational anticancer small molecules within a complex spheroid model of solid tumors. . Complex spheroids include a stromal component modeled by human endothelial cells (HUVEC) and fibroblasts modeled by human mesenchymal stem cells (MSCs). The concentration ranges selected for each drug and investigational agent were based upon clinically achievable concentrations if the clinical Cmax of the agent was known.
Compounds. The drugs and investigational agents: alrizomadlin (APG-115; NSC831270), pelcitoclax (APG-1252; NSC835773), dasminapant (APG-1387;NSC834197), TAK-243 (NSC785004), copanlisib (NSC809693), olaparib (NSC753686), talazoparib (NSC767125), cobimetinib (NSC 768068), eltanexor (KPT-8602, NSC 794443), abemaciclib (NSC 768073), sotorasib (NSC818433), adagrasib (NSC 831453), MRTX-1133 (NSC 836407), Iadademestat (ORY1001, NSC 806812), and RMC-4630 (NSC839698), were obtained from the NCI Developmental Therapeutics Program Chemical Repository. The FDA-approved anticancer drug set is available from the Developmental Therapeutics Program at https://dtp.cancer.gov/organization/dscb/obtaining/available plates.htm. […] The stock solutions were prepared in dimethyl sulfoxide (DMSO, Sigma-Aldrich, St. Louis, MO, cat. D2650) at 800-fold the tested concentration and stored at -70 degrees C prior to their use. All drugs and investigational agents were tested over a range starting from a high concentration at or near the clinical Cmax and decreasing in half-log increments. If the clinical Cmax for an agent had not been determined, the highest concentration tested was 10 microM.
The patient-derived cancer (PDC) cell lines include five colon adenocarcinomas: 186277-243-T-J2-PDC, 616215-338-R-J1-PDC, 439559-082-T-J2-PDC, 463943-066-T-J2-PDC, and 519858-162-T-J1-PDC; three pancreatic carcinomas: 323965-272-R-J2-PDC, 521955-158-R6-J3-PDC, and 521955-158-R2-J5-PDC; two uterine sarcomas: 327498-152-R-J2-PDC and 993429-296-R-J1-PDC; two rhabdomyosarcomas: 755483-174-R-J1-PDC and 772245-204-R-J1-PDC; two soft tissue sarcomas: 126254-015-R-J1-PDC and 494315-158-R-J1-PDC; two malignant fibrous histiocytomas: 317291-083-R-J1-PDC and 596521-263-R-J1-PDC; two breast carcinomas: 171881-019-R-J1-PDC and 885512-296-R-J2-PDC; and one ovarian carcinoma: 6556581-035-R-J-PDC were obtained from the NCI PDMR, (https://pdmr.cancer.gov). The established cell lines HSSY-2 synovial sarcoma (RRID:CVCL 8719), SYO-1 synovial sarcoma (RRID:CVCL_7146), MPNST malignant peripheral neural sheath tumor were obtained from the Sloan Kettering Institute. The following established cell lines were purchased from the American Type Culture Collection (ATCC, Manassas, VA), Sor the received from the NCI repository:, PANC-1 pancreatic carcinoma (CRL-1469, RRID:CVCL_0480), OVCAR-5 ovarian carcinoma (RRID:CVCL_1628), OVCAR-8 ovarian carcinoma (RRID:CVCL_1629), , MCF-7 breast carcinoma (CRL-12584, RRID:CVCL_0031), MDA-MB-231 breast carcinoma (CRL-12532, RRID:CVCL_0062), NCI-H1876 small cell lung carcinoma (CRL-5902, RRID:CVCL_1503), NCI-H510A small cell lung carcinoma (HTB-184, RRID:CVCL_1565), NCI-H1417 (CRL-5869, RRID:CVCL_1469), and NCI-H196 small cell lung carcinoma (CRL-5823, RRID:CVCL_1509). Dr. Peter Houghton (Greehey Children's Cancer Research Institute, University of Texas Health Science Center, San Antonio, TX) provided Rh-18 rhabdomyosarcoma (RRID:CVCL_1659). Pooled donor human umbilical vein endothelial cells (HUVEC, Lonza, cat. CC-2519) and human mesenchymal stem cells (hMSC, Lonza, cat. PT-2501) were purchased from Lonza (Walkersville, MD).
Cell Culture. […]

[1] = second compound 0.03 µM, first compound 0.00316 µM
[2] = second compound 0.03 µM, first compound 0.01 µM
[3] = second compound 0.03 µM, first compound 0.0316 µM
[4] = second compound 0.03 µM, first compound 0.1 µM
[5] = second compound 0.0949 µM, first compound 0.00316 µM
[6] = second compound 0.0949 µM, first compound 0.01 µM
[7] = second compound 0.0949 µM, first compound 0.0316 µM
[8] = second compound 0.0949 µM, first compound 0.1 µM
[9] = second compound 0.3 µM, first compound 0.00316 µM
[10] = second compound 0.3 µM, first compound 0.01 µM
[11] = second compound 0.3 µM, first compound 0.0316 µM
[12] = second compound 0.3 µM, first compound 0.1 µM
[13] = second compound 0.949 µM, first compound 0.00316 µM
[14] = second compound 0.949 µM, first compound 0.01 µM
[15] = second compound 0.949 µM, first compound 0.0316 µM
[16] = second compound 0.949 µM, first compound 0.1 µM
[17] = second compound 3 µM, first compound 0.00316 µM
[18] = second compound 3 µM, first compound 0.01 µM
[19] = second compound 3 µM, first compound 0.0316 µM
[20] = second compound 3 µM, first compound 0.1 µM
[21] = second compound 0.03 µM, first compound 0.316 µM
[22] = second compound 0.03 µM, first compound 1 µM
[23] = second compound 0.0949 µM, first compound 0.316 µM
[24] = second compound 0.0949 µM, first compound 1 µM
[25] = second compound 0.3 µM, first compound 0.316 µM
[26] = second compound 0.3 µM, first compound 1 µM
[27] = second compound 0.949 µM, first compound 0.316 µM
[28] = second compound 0.949 µM, first compound 1 µM
[29] = second compound 3 µM, first compound 0.316 µM
[30] = second compound 3 µM, first compound 1 µM
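Note: spheroids exposed to agents for 7 days before readout.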
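Throughout, for viability, T/C: 100% = DMSO vehicle control viability.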

IC50 (second compound 0.03 µM) [nM]	IC50 (second compound 0.0949 µM) [nM]	IC50 (second compound 0.3 µM) [nM]	IC50 (second compound 0.949 µM) [nM]	IC50 (second compound 3 µM) [nM]	SMILES	viability, T/C [1] [%]	viability, T/C [2] [%]	viability, T/C [3] [%]	viability, T/C [4] [%]	viability, T/C [5] [%]	viability, T/C [6] [%]	viability, T/C [7] [%]	viability, T/C [8] [%]	viability, T/C [9] [%]	viability, T/C [11] [%]	viability, T/C [12] [%]	viability, T/C [15] [%]	viability, T/C [16] [%]	viability, T/C [19] [%]	viability, T/C [20] [%]	further results
> 100	> 100	> 100	> 100	> 100	Cn1ncnc1[C@H]1c2n[nH]c(=O)c3cc(F)cc(c23)N[C@@H]1c1ccc(F)cc1 + CCN1C(C(=O)NC23CCC(C(=O)O)(CC2)CC3)C(c2cccc(Cl)c2F)C2(C(=O)Nc3cc(Cl)ccc32)C12CCCCC2	100	57.9	76.7	55.6	90.5	71.7	66.6	49.4	101	78	67.8	94.2	73	122	86.6	viability, T/C (second compound 0.03 µM, first compound 0.000316 µM): 142%; viability, T/C (second compound 0.03 µM, first compound 0.001 µM): 56.8%; viability, T/C (second compound 0.0949 µM, first compound 0.000316 µM): 104%; viability, T/C (second compound 0.0949 µM, first compound 0.001 µM): 77.5%; viability, T/C (second compound 0.3 µM, first compound 0.000316 µM): 90.6%; viability, T/C (second compound 0.3 µM, first compound 0.001 µM): 100%; viability, T/C [10]: 110%; viability, T/C (second compound 0.949 µM, first compound 0.000316 µM): 116%; viability, T/C (second compound 0.949 µM, first compound 0.001 µM): 135%; viability, T/C [13]: 107%; viability, T/C [14]: 98.9%; viability, T/C (second compound 3 µM, first compound 0.000316 µM): 146%; viability, T/C (second compound 3 µM, first compound 0.001 µM): 116%; viability, T/C [17]: 122%; viability, T/C [18]: 130%
> 10000	> 10000	> 10000	> 10000	> 10000	O=C(c1cc(Cc2n[nH]c(=O)c3ccccc23)ccc1F)N1CCN(C(=O)C2CC2)CC1 + CCN1C(C(=O)NC23CCC(C(=O)O)(CC2)CC3)C(c2cccc(Cl)c2F)C2(C(=O)Nc3cc(Cl)ccc32)C12CCCCC2	–	–	101	113	–	–	114	102	–	96.9	131	123	124	109	137	viability, T/C [21]: 68.7%; viability, T/C [22]: 91.9%; viability, T/C (second compound 0.03 µM, first compound 3.16 µM): 86.1%; viability, T/C (second compound 0.03 µM, first compound 10 µM): 63%; viability, T/C [23]: 99%; viability, T/C [24]: 73.2%; viability, T/C (second compound 0.0949 µM, first compound 3.16 µM): 74.2%; viability, T/C (second compound 0.0949 µM, first compound 10 µM): 74.5%; viability, T/C [25]: 104%; viability, T/C [26]: 87.2%; viability, T/C (second compound 0.3 µM, first compound 3.16 µM): 75.2%; viability, T/C (second compound 0.3 µM, first compound 10 µM): 66.8%; viability, T/C [27]: 113%; viability, T/C [28]: 113%; viability, T/C (second compound 0.949 µM, first compound 3.16 µM): 93.3%; viability, T/C (second compound 0.949 µM, first compound 10 µM): 88.8%; viability, T/C [29]: 135%; viability, T/C [30]: 126%; viability, T/C (second compound 3 µM, first compound 3.16 µM): 106%; viability, T/C (second compound 3 µM, first compound 10 µM): 98%
77	39.4	165	156	620	O=C(c1ccc(F)c(F)c1Nc1ccc(I)cc1F)N1CC(O)([C@@H]2CCCCN2)C1 + CCN1C(C(=O)NC23CCC(C(=O)O)(CC2)CC3)C(c2cccc(Cl)c2F)C2(C(=O)Nc3cc(Cl)ccc32)C12CCCCC2	65.8	56	62.5	45.1	80.7	80.1	51.1	51.7	64.5	85.2	60	82.4	57.3	80	71.8	viability, T/C [21]: 37.2%; viability, T/C [22]: 29.1%; viability, T/C [23]: 43.1%; viability, T/C [24]: 35.4%; viability, T/C [10]: 83.3%; viability, T/C [25]: 40.9%; viability, T/C [26]: 33.1%; viability, T/C [13]: 93.3%; viability, T/C [14]: 91.3%; viability, T/C [27]: 37.8%; viability, T/C [28]: 38.1%; viability, T/C [17]: 107%; viability, T/C [18]: 102%; viability, T/C [29]: 61.8%; viability, T/C [30]: 42.5%
